Experimental data reported in ChEMBL document CHEMBL4507281, “Data for DCP probe BI-4394” (2021).

How the values were obtained:
[1] = target: RAF proto-oncogene serine/threonine-protein kinase (Homo sapiens) (UniProt P04049); details: Compound concentration 100.0 nM
[2] = target: Serine/threonine-protein kinase 24 (Homo sapiens) (UniProt Q9Y6E0); details: Compound concentration 100.0 nM
[3] = target: Vascular endothelial growth factor receptor 2 (Homo sapiens) (UniProt P35968); details: Compound concentration 100.0 nM
[4] = target: Casein kinase I isoform gamma-2 (Homo sapiens) (UniProt P78368); details: Compound concentration 100.0 nM
[5] = target: Mitogen-activated protein kinase kinase kinase 1 (Homo sapiens) (UniProt Q13233); details: Compound concentration 100.0 nM
Chain of Mitogen-activated protein kinase kinase kinase 1 (Homo sapiens) (Q13233 whole entry): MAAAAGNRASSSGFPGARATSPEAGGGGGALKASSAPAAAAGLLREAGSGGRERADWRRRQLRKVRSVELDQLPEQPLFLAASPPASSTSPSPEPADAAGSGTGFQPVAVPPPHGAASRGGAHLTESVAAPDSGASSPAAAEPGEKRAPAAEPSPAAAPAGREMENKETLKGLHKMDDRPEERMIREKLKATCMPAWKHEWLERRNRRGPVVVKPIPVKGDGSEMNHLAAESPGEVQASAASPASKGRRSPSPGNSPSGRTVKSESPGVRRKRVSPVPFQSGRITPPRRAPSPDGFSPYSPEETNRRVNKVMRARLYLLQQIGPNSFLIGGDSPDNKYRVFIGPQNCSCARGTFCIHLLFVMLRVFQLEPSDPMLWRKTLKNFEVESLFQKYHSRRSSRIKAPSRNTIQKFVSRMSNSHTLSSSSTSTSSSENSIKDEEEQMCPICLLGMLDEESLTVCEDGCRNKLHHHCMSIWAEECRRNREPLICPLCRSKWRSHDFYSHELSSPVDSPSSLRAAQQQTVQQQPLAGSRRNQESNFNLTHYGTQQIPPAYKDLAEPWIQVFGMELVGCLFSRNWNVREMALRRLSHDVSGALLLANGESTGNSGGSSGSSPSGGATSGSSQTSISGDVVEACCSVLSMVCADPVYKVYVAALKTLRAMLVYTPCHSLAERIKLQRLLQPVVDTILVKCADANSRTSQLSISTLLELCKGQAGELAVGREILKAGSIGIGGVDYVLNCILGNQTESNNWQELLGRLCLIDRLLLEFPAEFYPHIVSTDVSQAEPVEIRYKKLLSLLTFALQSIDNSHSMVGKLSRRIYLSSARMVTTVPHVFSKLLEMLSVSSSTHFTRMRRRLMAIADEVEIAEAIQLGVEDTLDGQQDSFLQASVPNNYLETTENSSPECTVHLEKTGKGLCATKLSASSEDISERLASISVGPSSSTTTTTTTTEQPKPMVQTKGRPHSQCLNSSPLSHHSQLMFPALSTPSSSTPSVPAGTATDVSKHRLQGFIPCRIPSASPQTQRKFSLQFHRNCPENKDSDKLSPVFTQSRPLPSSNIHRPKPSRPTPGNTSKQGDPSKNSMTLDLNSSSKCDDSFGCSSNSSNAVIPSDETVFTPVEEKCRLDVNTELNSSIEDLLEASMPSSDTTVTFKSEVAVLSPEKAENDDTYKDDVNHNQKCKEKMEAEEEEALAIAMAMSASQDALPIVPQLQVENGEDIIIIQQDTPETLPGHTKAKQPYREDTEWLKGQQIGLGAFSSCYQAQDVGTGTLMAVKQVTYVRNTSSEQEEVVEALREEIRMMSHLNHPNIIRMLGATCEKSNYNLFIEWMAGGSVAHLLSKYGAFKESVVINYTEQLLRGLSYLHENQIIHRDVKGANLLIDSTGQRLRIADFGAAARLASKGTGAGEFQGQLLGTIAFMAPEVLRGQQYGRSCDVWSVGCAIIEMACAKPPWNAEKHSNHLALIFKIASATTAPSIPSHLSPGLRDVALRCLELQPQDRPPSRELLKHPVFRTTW

[6] = target: Serine/threonine-protein kinase PAK 4 (Homo sapiens) (UniProt O96013); details: Compound concentration 100.0 nM
Chain of Serine/threonine-protein kinase PAK 4 (Homo sapiens) (O96013 whole entry, looked up): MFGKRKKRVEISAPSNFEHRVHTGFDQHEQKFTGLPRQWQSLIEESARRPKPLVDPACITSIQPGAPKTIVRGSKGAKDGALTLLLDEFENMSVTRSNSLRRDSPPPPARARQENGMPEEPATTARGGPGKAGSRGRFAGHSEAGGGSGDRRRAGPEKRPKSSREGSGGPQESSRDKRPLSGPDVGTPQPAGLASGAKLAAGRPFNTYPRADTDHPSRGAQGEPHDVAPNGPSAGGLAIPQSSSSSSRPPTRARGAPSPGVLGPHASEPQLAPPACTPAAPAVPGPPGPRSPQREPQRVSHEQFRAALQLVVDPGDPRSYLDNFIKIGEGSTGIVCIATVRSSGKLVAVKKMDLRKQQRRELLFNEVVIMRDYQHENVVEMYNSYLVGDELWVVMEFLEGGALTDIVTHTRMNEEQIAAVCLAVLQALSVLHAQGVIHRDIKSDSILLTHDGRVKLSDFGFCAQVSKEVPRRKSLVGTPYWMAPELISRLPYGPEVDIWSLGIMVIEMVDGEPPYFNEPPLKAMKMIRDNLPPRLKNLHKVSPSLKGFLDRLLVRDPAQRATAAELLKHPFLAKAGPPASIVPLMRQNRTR

[7] = target: Fibroblast growth factor receptor 4 (Homo sapiens) (UniProt P22455); details: Compound concentration 100.0 nM
[8] = test system: Receptor-type tyrosine-protein kinase FLT3 (Homo sapiens), P36888 [UNDEFINED MUTATION]; details: Compound concentration 100.0 nM
[9] = target: Transient receptor potential cation channel subfamily M member 6 (Homo sapiens) (UniProt Q9BX84); details: Compound concentration 100.0 nM
[10] = test system: Mast/stem cell growth factor receptor Kit (Homo sapiens), P10721 [L576P]; details: Compound concentration 100.0 nM
[11] = target: Muscarinic acetylcholine receptor M5 (Homo sapiens) (UniProt P08912); details: Compound concentration 10.0 uM
[12] = test system: Receptor-type tyrosine-protein kinase FLT3 (Homo sapiens), P36888 [D835H]; details: Compound concentration 100.0 nM
[13] = target: Casein kinase I isoform epsilon (Homo sapiens) (UniProt P49674); details: Compound concentration 100.0 nM
[14] = test system: Serine/threonine-protein kinase B-raf (Homo sapiens), P15056 [V600E]; details: Compound concentration 100.0 nM
[15] = target: Mitogen-activated protein kinase 6 (Homo sapiens) (UniProt Q16659); details: Compound concentration 100.0 nM
[16] = target: Serine/threonine-protein kinase PLK1 (Homo sapiens) (UniProt P53350); details: Compound concentration 100.0 nM
Chain of Serine/threonine-protein kinase PLK1 (Homo sapiens) (P53350 whole entry): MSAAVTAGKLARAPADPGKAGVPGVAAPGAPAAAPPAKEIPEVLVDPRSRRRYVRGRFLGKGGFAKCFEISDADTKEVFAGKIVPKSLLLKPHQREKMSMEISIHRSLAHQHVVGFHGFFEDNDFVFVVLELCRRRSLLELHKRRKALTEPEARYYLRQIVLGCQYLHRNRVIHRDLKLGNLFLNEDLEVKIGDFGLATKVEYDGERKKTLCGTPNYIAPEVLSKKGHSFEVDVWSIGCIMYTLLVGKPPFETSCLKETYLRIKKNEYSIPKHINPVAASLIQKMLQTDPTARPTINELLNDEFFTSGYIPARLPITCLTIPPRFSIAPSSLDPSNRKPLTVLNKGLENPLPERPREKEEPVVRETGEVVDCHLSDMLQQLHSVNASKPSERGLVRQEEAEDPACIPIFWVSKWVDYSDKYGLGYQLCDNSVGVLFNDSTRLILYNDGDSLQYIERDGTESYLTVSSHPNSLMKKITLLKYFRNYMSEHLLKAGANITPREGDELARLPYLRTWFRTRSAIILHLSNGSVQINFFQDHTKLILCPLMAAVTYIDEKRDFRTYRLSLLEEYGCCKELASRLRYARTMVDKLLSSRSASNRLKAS

[17] = target: Atypical kinase COQ8B, mitochondrial (Homo sapiens) (UniProt Q96D53); details: Compound concentration 100.0 nM
[18] = target: Death-associated protein kinase 2 (Homo sapiens) (UniProt Q9UIK4); details: Compound concentration 100.0 nM
[19] = target: Serine/threonine-protein kinase B-raf (Homo sapiens) (UniProt P15056); details: Compound concentration 100.0 nM
[20] = target: Alpha-1B adrenergic receptor (Homo sapiens) (UniProt P35368); details: Compound concentration 10.0 uM
[21] = target: Non-receptor tyrosine-protein kinase TYK2 (Homo sapiens) (UniProt P29597); details: Compound concentration 100.0 nM
[22] = target: Ephrin type-B receptor 6 (Homo sapiens) (UniProt O15197); details: Compound concentration 100.0 nM
[23] = test system: Proto-oncogene tyrosine-protein kinase receptor Ret (Homo sapiens), P07949 [V804L]; details: Compound concentration 100.0 nM
[24] = target: Dual specificity testis-specific protein kinase 1 (Homo sapiens) (UniProt Q15569); details: Compound concentration 100.0 nM
[25] = target: Mast/stem cell growth factor receptor Kit (Homo sapiens) (UniProt P10721); details: Compound concentration 100.0 nM
[26] = target: Megakaryocyte-associated tyrosine-protein kinase (Homo sapiens) (UniProt P42679); details: Compound concentration 100.0 nM
[27] = target: Phosphatidylinositol 4-phosphate 5-kinase type-1 gamma (Homo sapiens) (UniProt O60331); details: Compound concentration 100.0 nM
[28] = target: Eukaryotic translation initiation factor 2-alpha kinase 1 (Homo sapiens) (UniProt Q9BQI3); details: Compound concentration 100.0 nM
Chain of Eukaryotic translation initiation factor 2-alpha kinase 1 (Homo sapiens) (Q9BQI3 whole entry): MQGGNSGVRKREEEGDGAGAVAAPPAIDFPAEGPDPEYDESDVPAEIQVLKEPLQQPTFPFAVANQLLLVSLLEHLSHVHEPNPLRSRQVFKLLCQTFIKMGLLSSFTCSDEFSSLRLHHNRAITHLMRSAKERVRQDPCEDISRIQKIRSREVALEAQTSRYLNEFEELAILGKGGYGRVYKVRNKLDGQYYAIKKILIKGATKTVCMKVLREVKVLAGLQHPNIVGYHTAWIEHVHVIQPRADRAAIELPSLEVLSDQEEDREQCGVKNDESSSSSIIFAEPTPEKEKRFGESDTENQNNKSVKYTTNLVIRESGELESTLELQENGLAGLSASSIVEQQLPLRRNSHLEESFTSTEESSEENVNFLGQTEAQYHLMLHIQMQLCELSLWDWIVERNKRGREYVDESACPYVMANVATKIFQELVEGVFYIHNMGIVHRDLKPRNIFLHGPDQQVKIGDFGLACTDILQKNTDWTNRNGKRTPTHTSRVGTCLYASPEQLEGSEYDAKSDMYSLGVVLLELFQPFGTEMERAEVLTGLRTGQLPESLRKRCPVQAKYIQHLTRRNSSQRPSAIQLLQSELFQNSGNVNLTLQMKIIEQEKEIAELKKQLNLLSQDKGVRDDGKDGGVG

[29] = target: Serine/threonine-protein kinase MRCK alpha (Homo sapiens) (UniProt Q5VT25); details: Compound concentration 100.0 nM
Chain of Serine/threonine-protein kinase MRCK alpha (Homo sapiens) (Q5VT25 whole entry): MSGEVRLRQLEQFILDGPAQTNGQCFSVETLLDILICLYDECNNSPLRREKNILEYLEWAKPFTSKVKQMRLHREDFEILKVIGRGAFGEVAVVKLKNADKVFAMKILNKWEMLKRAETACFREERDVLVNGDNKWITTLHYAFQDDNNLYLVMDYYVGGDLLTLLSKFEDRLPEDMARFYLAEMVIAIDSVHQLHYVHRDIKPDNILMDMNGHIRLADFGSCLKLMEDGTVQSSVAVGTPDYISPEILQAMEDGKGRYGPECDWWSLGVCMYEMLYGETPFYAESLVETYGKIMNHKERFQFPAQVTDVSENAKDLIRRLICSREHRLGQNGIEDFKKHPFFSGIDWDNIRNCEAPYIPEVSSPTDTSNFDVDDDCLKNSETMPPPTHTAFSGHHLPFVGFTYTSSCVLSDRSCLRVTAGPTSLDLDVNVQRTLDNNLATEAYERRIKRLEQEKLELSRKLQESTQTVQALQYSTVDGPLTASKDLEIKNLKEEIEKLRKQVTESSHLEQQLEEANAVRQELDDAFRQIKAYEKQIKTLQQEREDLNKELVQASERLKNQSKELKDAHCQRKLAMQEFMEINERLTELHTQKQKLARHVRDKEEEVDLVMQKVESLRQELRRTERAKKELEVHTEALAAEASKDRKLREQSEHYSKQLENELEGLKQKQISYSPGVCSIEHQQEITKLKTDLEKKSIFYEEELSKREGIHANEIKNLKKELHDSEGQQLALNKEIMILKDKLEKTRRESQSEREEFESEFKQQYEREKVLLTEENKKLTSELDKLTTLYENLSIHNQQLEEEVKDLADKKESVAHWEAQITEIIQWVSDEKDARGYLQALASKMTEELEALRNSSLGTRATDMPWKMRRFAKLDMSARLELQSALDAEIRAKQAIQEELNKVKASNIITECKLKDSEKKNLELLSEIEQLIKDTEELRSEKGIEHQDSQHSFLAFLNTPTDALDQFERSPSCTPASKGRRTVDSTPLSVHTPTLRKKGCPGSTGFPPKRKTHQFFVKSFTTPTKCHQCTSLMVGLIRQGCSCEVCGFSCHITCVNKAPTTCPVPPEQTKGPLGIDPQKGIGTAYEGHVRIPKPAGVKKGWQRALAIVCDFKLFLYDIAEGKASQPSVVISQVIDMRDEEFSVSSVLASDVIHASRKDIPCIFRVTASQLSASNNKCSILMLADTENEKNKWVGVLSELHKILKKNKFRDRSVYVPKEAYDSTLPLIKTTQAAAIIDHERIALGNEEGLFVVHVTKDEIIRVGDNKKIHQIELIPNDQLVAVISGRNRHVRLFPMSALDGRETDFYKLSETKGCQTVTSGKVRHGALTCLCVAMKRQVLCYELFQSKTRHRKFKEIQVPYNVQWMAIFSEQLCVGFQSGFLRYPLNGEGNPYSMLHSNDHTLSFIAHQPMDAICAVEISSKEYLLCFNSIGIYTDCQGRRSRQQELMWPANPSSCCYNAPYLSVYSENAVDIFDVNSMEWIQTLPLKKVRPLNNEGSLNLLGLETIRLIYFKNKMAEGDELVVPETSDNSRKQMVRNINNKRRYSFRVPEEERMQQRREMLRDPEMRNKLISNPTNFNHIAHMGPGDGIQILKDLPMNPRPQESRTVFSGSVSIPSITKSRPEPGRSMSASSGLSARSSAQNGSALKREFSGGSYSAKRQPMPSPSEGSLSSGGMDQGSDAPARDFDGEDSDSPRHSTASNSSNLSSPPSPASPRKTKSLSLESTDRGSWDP

[30] = target: Cyclin-dependent kinase 11B (Homo sapiens) (UniProt P21127); details: Compound concentration 100.0 nM
[31] = target: Mitogen-activated protein kinase 7 (Homo sapiens) (UniProt Q13164); details: Compound concentration 100.0 nM
[32] = target: Sodium-dependent serotonin transporter (Homo sapiens) (UniProt P31645); details: Compound concentration 10.0 uM
[33] = target: Cyclin-dependent kinase 11A (Homo sapiens) (UniProt Q9UQ88); details: Compound concentration 100.0 nM
[34] = target: Casein kinase I isoform alpha (Homo sapiens) (UniProt P48729); details: Compound concentration 100.0 nM
[35] = test system: Mast/stem cell growth factor receptor Kit (Homo sapiens), P10721 [V559D,T670I]; details: Compound concentration 100.0 nM
[36] = target: Calcium/calmodulin-dependent protein kinase type 1G (Homo sapiens) (UniProt Q96NX5); details: Compound concentration 100.0 nM
[37] = target: Serine/threonine-protein kinase pim-1 (Homo sapiens) (UniProt P11309); details: Compound concentration 100.0 nM
[38] = target: Serine/threonine-protein kinase MARK2 (Homo sapiens) (UniProt Q7KZI7); details: Compound concentration 100.0 nM
[39] = target: LIM domain kinase 2 (Homo sapiens) (UniProt P53671); details: Compound concentration 100.0 nM
[40] = target: Mitogen-activated protein kinase kinase kinase 14 (Homo sapiens) (UniProt Q99558); details: Compound concentration 100.0 nM
[41] = target: Cyclin-dependent kinase 15 (Homo sapiens) (UniProt Q96Q40); details: Compound concentration 100.0 nM
[42] = target: Dual specificity tyrosine-phosphorylation-regulated kinase 1B (Homo sapiens) (UniProt Q9Y463); details: Compound concentration 100.0 nM
[43] = target: Protein kinase C eta type (Homo sapiens) (UniProt P24723); details: Compound concentration 100.0 nM
[44] = target: Alpha-2C adrenergic receptor (Homo sapiens) (UniProt P18825); details: Compound concentration 10.0 uM
[45] = target: Aurora kinase C (Homo sapiens) (UniProt Q9UQB9); details: Compound concentration 100.0 nM

SMILES: Cn1nc(C(=O)NCc2ccc(C(=O)O)cc2)cc1-c1ccc2[nH]ccc2c1 [BI 4395]
- residual activity [1]: 70%
- residual activity [2]: 97%
- residual activity [3]: 85%
- residual activity [4]: 90%
- residual activity [5]: 65%
- residual activity [6]: 86%
- residual activity [7]: 100%
- residual activity [8]: 66%
- residual activity [9]: 79%
- residual activity [10]: 59%
- inhibition [11]: -7.43%
- residual activity [12]: 46%
- residual activity [13]: 80%
- residual activity [14]: 89%
- residual activity [15]: 100%
- residual activity [16]: 95%
- residual activity [17]: 100%
- residual activity [18]: 96%
- residual activity [19]: 74%
- inhibition [20]: -6.1%
- residual activity [21]: 82%
- residual activity [22]: 96%
- residual activity [23]: 45%
- residual activity [24]: 92%
- residual activity [25]: 90%
- residual activity [26]: 86%
- residual activity [27]: 91%
- residual activity [28]: 90%
- residual activity [29]: 79%
- residual activity [30]: 93%
- residual activity [31]: 87%
- inhibition [32]: 5.3%
- residual activity [33]: 96%
- residual activity [34]: 81%
- residual activity [35]: 77%
- residual activity [36]: 89%
- residual activity [37]: 91%
- residual activity [38]: 100%
- residual activity [39]: 100%
- residual activity [40]: 85%
- residual activity [41]: 95%
- residual activity [42]: 100%
- residual activity [43]: 84%
- inhibition [44]: -7.92%
- residual activity [45]: 76%

SMILES: CCOC(=O)c1cc2cc(-c3cc(C(=O)NCc4ccc(C(=O)O)cc4)nn3C)ccc2[nH]1 [BI 4394]
- residual activity [1]: 100%
- residual activity [2]: 92%
- residual activity [3]: 81%
- residual activity [4]: 79%
- residual activity [5]: 90%
- residual activity [6]: 100%
- residual activity [7]: 68%
- residual activity [8]: 72%
- residual activity [9]: 95%
- residual activity [10]: 100%
- inhibition [11]: 7.64%
- residual activity [12]: 100%
- residual activity [13]: 100%
- residual activity [14]: 100%
- residual activity [15]: 97%
- residual activity [16]: 90%
- residual activity [17]: 100%
- residual activity [18]: 92%
- residual activity [19]: 91%
- inhibition [20]: -1.29%
- residual activity [21]: 90%
- residual activity [22]: 77%
- residual activity [23]: 99%
- residual activity [24]: 97%
- residual activity [25]: 83%
- residual activity [26]: 96%
- residual activity [27]: 100%
- residual activity [28]: 91%
- residual activity [29]: 100%
- residual activity [30]: 98%
- residual activity [31]: 100%
- inhibition [32]: -0.14%
- residual activity [33]: 100%
- residual activity [34]: 88%
- residual activity [35]: 96%
- residual activity [36]: 100%
- residual activity [37]: 95%
- residual activity [38]: 100%
- residual activity [39]: 96%
- residual activity [40]: 58%
- residual activity [41]: 93%
- residual activity [42]: 100%
- residual activity [43]: 87%
- inhibition [44]: -7.04%
- residual activity [45]: 100%
